# Reference: patent US7256187B2, “Rifamycin C-11 oxime derivatives effective against drug-resistant microbes” (Cumbre Pharmaceuticals Inc., priority 2004, dated 2007)
# How the values were obtained:
# Type in all cases: cell-based
# [1] = test system: Staphylococcus aureus ATCC29213 rpoB^H418Y; experiment: microbe, parasite or virus in culture; details: Staphylococcus aureus ATCC29213 rpoB^H418Y, rifR; read-out: Antimicrobial activity (MIC)
# Experimental: (§1) Representative compounds were assayed for antimicrobial activity as follows: Minimum Inhibitory Concentrations (“MICs”) were determined by the microbroth dilution method as per NCCLS guidelines (National Committee for Clinical Laboratory Standards. 2000. Methods for dilution antimicrobial susceptibility tests for bacteria that grow aerobically, 5th ed. M7-A5. National Committee for Clinical Laboratory Standards, Wayne, Pa.), except that all growth incubations were conducted at 37° C. Bacterial cultures were tested in the following bacteriological media: S. aureus, S. epidermidis, and E. coli in Cation-Adjusted Mueller-Hinton Broth, S. pneumoniae in THY Broth supplemented with 1 mg/mL catalase under 5% CO2 atmosphere, S. pyogenes in THY Broth, E. faecalis in BHI Broth, H. influenzae in BHI Broth supplemented with 0.75 μL of 1 mg/mL NAD and 150 μL of 1 mg/ml hematin per 5 mL, and M. smegmatis in Middlebrook Broth plus ADC Enrichment.
# (§2) S. aureus ATCC 29213 RpoB^H418Y is a rifampin-resistant strain with a mutation in the RpoB gene of RNA polymerase. […] S. aureus EN1252a gyrA^S84L grlA^S80F is a quinolone-resistant strain due to double gene mutations of DNA gyrase and topoisomerase IV.
# [2] = test system: Staphylococcus aureus ATCC29213 rpoB^D417Y; experiment: microbe, parasite or virus in culture; details: Staphylococcus aureus ATCC29213 rpoB^D417Y, rifR; read-out: Antimicrobial activity (MIC)
# Experimental: as §1, §2
# [3] = test system: Staphylococcus aureus EN1252a gyrA^S84L grlA^S80F; experiment: microbe, parasite or virus in culture; details: Staphylococcus aureus EN1252a gyrA^S84L grlA^S80F, cipR; read-out: Antimicrobial activity (MIC)
# Experimental: as §1, §2
# [4] = test system: Mycobacterium smegmatis ATCC700084; experiment: MIC, microbroth dilution; details: Mycolicibacterium smegmatis; Mycobacterium smegmatis ATCC700084, rifS; read-out: Antimicrobial activity (MIC)
# [5] = test system: Staphylococcus epidermidis ATCC12228; experiment: MIC, microbroth dilution; details: Staphylococcus epidermidis ATCC12228, rifS; read-out: Antimicrobial activity (MIC)
# [6] = test system: Staphylococcus aureus ATCC29213; experiment: MIC, microbroth dilution; details: Staphylococcus aureus ATCC29213, rifS; read-out: Antimicrobial activity (MIC)
# [7] = test system: Escherichia coli ATCC25922; experiment: MIC, microbroth dilution; details: Escherichia coli ATCC25922, rifS; read-out: Antimicrobial activity (MIC)
# [8] = test system: Haemophilus influenzae ATCC10211; experiment: MIC, microbroth dilution; details: Haemophilus influenzae ATCC10211, rifS; read-out: Antimicrobial activity (MIC)
# [9] = test system: Streptococcus pyogenes ATCC19615; experiment: MIC, microbroth dilution; details: Streptococcus pyogenes ATCC19615, rifS; read-out: Antimicrobial activity (MIC)
# [10] = test system: Streptococcus pneumoniae ATCC6303; experiment: MIC, microbroth dilution; details: Streptococcus pneumoniae ATCC6303, rifS; read-out: Antimicrobial activity (MIC)
# [11] = test system: Enterococcus faecalis ATCC29212; experiment: MIC, microbroth dilution; details: Enterococcus faecalis ATCC29212, rifS; read-out: Antimicrobial activity (MIC)
SMILES,MIC [1],MIC [2],MIC [3],MIC [4],MIC [5],MIC [6],MIC [7],MIC [8],MIC [9],MIC [10],MIC [11]
"CO[C@H]1/C=C/O[C@@]2(C)Oc3c(C)c(O)c4c(O)c(c(/C=N/N5CCN(C)CC5)c(O)c4c3/C2=N/O)NC(=O)/C(C)=C\C=C\[C@H](C)[C@H](O)[C@@H](C)[C@@H](O)[C@@H](C)[C@H](OC(C)=O)[C@@H]1C [Example 37, 11-Deoxy-11-hydroxyimino-3-(4-methylpiperazin-1-yl)aminomethenylrifamycin SV]",0.125 to 16 mg/L,0.25 to 32 mg/L,0.004 to 0.5 mg/L,0.5 to 64 mg/L,0.0005 to 0.063 mg/L,0.004 to 0.5 mg/L,0.125 to 8 mg/L,0.03 to 2 mg/L,0.0005 to 0.063 mg/L,0.0002 to 0.125 mg/L,2 to 32 mg/L
CO[C@H]1/C=C/O[C@@]2(C)Oc3c(C)c(O)c4c(c3/C2=N/OCCN2CCN(c3ccccn3)CC2)C(=O)C=C(NC(=O)/C(C)=C\C=C\[C@H](C)[C@H](O)[C@@H](C)[C@@H](O)[C@@H](C)[C@H](OC(C)=O)[C@@H]1C)C4=O [Example 17],0.125 to 16 mg/L,0.25 to 32 mg/L,0.004 to 0.5 mg/L,0.5 to 64 mg/L,0.0005 to 0.063 mg/L,0.004 to 0.5 mg/L,0.125 to 8 mg/L,0.03 to 2 mg/L,0.0005 to 0.063 mg/L,0.0002 to 0.125 mg/L,2 to 32 mg/L
CO[C@H]1/C=C/O[C@@]2(C)Oc3c(C)c(O)c4c(c3/C2=N/OCCN2CCN(c3cc5c(cc3F)c(=O)c(C(=O)O)cn5C3CC3)CC2)C(=O)C=C(NC(=O)/C(C)=C\C=C\[C@H](C)[C@H](O)[C@@H](C)[C@@H](O)[C@@H](C)[C@H](OC(C)=O)[C@@H]1C)C4=O [Example 15],0.125 to 16 mg/L,0.25 to 32 mg/L,0.004 to 0.5 mg/L,0.5 to 64 mg/L,0.0005 to 0.063 mg/L,0.004 to 0.5 mg/L,0.125 to 8 mg/L,0.03 to 2 mg/L,0.0005 to 0.063 mg/L,0.0002 to 0.125 mg/L,2 to 32 mg/L
"CO[C@H]1/C=C/O[C@@]2(C)Oc3c(C)c(O)c4c(c3/C2=N/OCCN2CCN(Cc3ccccc3)CC2)C(=O)C=C(NC(=O)/C(C)=C\C=C\[C@H](C)[C@H](O)[C@@H](C)[C@@H](O)[C@@H](C)[C@H](OC(C)=O)[C@@H]1C)C4=O [Example 25, 11-Deoxy-11-[2-(4-benzylpiperazin-1-yl)ethoxyimino]rifamycin S]",0.125 to 16 mg/L,0.25 to 32 mg/L,0.004 to 0.5 mg/L,0.5 to 64 mg/L,0.0005 to 0.063 mg/L,0.004 to 0.5 mg/L,0.125 to 8 mg/L,0.03 to 2 mg/L,0.0005 to 0.063 mg/L,0.0002 to 0.125 mg/L,2 to 32 mg/L
"CO[C@H]1/C=C/O[C@@]2(C)Oc3c(C)c(O)c4c(c3/C2=N/O)C(=O)C(N2CCOCC2)=C(NC(=O)/C(C)=C\C=C\[C@H](C)[C@H](O)[C@@H](C)[C@@H](O)[C@@H](C)[C@H](OC(C)=O)[C@@H]1C)C4=O [Example 34, 11-Deoxy-3-(morpholin-4-yl)-11-hydroxyiminorifamycin S]",0.125 to 16 mg/L,0.25 to 32 mg/L,0.004 to 0.5 mg/L,0.5 to 64 mg/L,0.0005 to 0.063 mg/L,0.004 to 0.5 mg/L,0.125 to 8 mg/L,0.03 to 2 mg/L,0.0005 to 0.063 mg/L,0.0002 to 0.125 mg/L,2 to 32 mg/L
"C=CCO/N=C1/c2c3c(C)c(O)c4c2C(=O)C(N2CCOCC2)=C(NC(=O)/C(C)=C\C=C\[C@H](C)[C@H](O)[C@@H](C)[C@@H](O)[C@@H](C)[C@H](OC(C)=O)[C@H](C)[C@@H](OC)/C=C/O[C@@]1(C)O3)C4=O [Example 36, 11-Deoxy-3-(morpholin-4-yl)-11-allyloxyiminorifamycin S]",0.125 to 16 mg/L,0.25 to 32 mg/L,0.004 to 0.5 mg/L,0.5 to 64 mg/L,0.0005 to 0.063 mg/L,0.004 to 0.5 mg/L,0.125 to 8 mg/L,0.03 to 2 mg/L,0.0005 to 0.063 mg/L,0.0002 to 0.125 mg/L,2 to 32 mg/L
CO[C@H]1/C=C/O[C@@]2(C)Oc3c(C)c(O)c4c(c3/C2=N/O)C(=O)C(CO)=C(NC(=O)/C(C)=C\C=C\[C@H](C)[C@H](O)[C@@H](C)[C@@H](O)[C@@H](C)[C@H](OC(C)=O)[C@@H]1C)C4=O [Example 27],0.125 to 16 mg/L,0.25 to 32 mg/L,0.004 to 0.5 mg/L,0.5 to 64 mg/L,0.0005 to 0.063 mg/L,0.004 to 0.5 mg/L,0.125 to 8 mg/L,0.03 to 2 mg/L,0.0005 to 0.063 mg/L,0.0002 to 0.125 mg/L,2 to 32 mg/L
